Where two headings read alike, the source gives them in different places.

From paper PMC10610505, “Synthesis and Biological Evaluation of Some New 3-Aryl-2-thioxo-2,3-dihydroquinazolin-4(1H)-ones and 3-Aryl-2-(benzylthio)quinazolin-4(3H)-ones as Antioxidants; COX-2, LDHA, α-Glucosidase and α-Amylase Inhibitors; and Anti-Colon Carcinoma and Apoptosis-Inducing Agents” (Pharmaceuticals, 2023) come the findings set out here.

One data set has as its target α-amylase. Briefly: In vitro α-amylase (AA) inhibition assay. To be noted: mean ± SD of three replicates; for IC50: read-out: Mean IC50 α-Amylase (AA).
Data set [1] can be described thus: DPPH radical scavenging assay. The class given is biochemical. As to conditions: for Mean IC50 for scavenging initial DPPH radicals: mean ± SD of three replicates; for IC50: mean ± SD, converted from mg/mL, read-out: Mean IC50 for scavenging initial DPPH radicals (converted). The source says:
In principle, the antioxidant power of a compound in this assay is correlated to its tendency to reduce the stable, purple-colored DPPH radical through a hydrogen atom transfer (HAT) mechanism and/or a single electron transfer mechanism, thereby converting it to the yellow-colored 2,2-diphenyl-1-picrylhydrazine, whereby this reduction is accompanied by a depletion in the amount of the initial DPPH radicals and a change in the absorbance of the test solution accordingly, which can be detected relative to the blank solution at λ = 517 nm.
The antioxidant potencies of all synthesized compounds were investigated using a 1,1 diphenyl-2-picrylhydrazyl (DPPH) radical scavenging assay according to the protocol described by Bersuder et al.. In brief, a 0.5 mL volume of DPPH ethanolic solution was mixed with an equal volume of each sample concentration (i.e., the test compound or butylated hydroxytoluene, BHT, which was used as the reference antioxidant in the positive control experiment), shaken strongly, and incubated at room temperature for 1 h in darkness. The absorbance of the residual DPPH radicals was measured at λ = 519 nm and compared to the negative control (without the test compound or reference antioxidant). The DPPH radical scavenging power was calculated using the following formula: scavenging efficiency (%) = (1 − Acompound/AControl) × 100, where Acompound and Acontrol are the absorbance of the tested compound and the negative control, respectively. […] Additionally, the ± SD values were calculated from three independent triplicate measurements.

In data set [2] the test system is HCT-116 human colon carcinoma cells. Briefly: Viability assay (LDH release), HCT-116. Format: cell-based. As to conditions: for viability at 200 µg/mL: Homo sapiens, read-out: Mean % of viable cells ± SD, HCT-116. The protocol: (§1) The anticancer activities of all the synthesized compounds were assessed against two human colon carcinoma cell lines, namely LoVo and HCT-116 (Table 6), via the determination of the mean percents of the viable cancerous cells remaining after being incubated with 200 µg/mL of each test compound for 48 h using LDH assay.
(§2) The samples were diluted in Dulbecco’s Modified Eagle’s Medium, consisting of 10% fetal bovine serum (FBS), added to cells grown and cultured for 24 h in a 5% CO2-humidified incubator at 37 °C. Thereafter, the activity of lactate dehydrogenase released from damaged cells was determined in the collected supernatant aliquots using an ELISA end-point assay (Benchmark Plus, Bio-Rad, CA, USA); 0.1% Triton X-100 in the assay medium and the assay medium only were used as the positive and negative controls, respectively. Cell viability was expressed as a relative percentage of the OD values (at 550 nm) for compound-treated cells (final concentration of 200 µg /mL) and the negative control, which was shown as the mean % ± SD (n = 3). The results of the viability assays for the potential cytotoxic candidates were compared with the % of viable human umbilical vein endothelial cells (HUVEC) at the same concentration. These cells were grown in Dulbecco’s Modified Eagle’s Medium (PAN-Biotech; Barcelona, Spain) containing 10% FBS (Sigma Aldrich; St. Quentin-Fallavier, France), 2 mM Glutamine (Sigma Aldrich), 100 units/mL penicillin and […] streptomycin (Life Technologies; Paisley, UK).

Another data set addresses T1, COX-2 (Homo sapiens, UniProt P35354).
T1 construct: purchased Cayman Chemical Company 701080
T1 sequence (P35354 18-604): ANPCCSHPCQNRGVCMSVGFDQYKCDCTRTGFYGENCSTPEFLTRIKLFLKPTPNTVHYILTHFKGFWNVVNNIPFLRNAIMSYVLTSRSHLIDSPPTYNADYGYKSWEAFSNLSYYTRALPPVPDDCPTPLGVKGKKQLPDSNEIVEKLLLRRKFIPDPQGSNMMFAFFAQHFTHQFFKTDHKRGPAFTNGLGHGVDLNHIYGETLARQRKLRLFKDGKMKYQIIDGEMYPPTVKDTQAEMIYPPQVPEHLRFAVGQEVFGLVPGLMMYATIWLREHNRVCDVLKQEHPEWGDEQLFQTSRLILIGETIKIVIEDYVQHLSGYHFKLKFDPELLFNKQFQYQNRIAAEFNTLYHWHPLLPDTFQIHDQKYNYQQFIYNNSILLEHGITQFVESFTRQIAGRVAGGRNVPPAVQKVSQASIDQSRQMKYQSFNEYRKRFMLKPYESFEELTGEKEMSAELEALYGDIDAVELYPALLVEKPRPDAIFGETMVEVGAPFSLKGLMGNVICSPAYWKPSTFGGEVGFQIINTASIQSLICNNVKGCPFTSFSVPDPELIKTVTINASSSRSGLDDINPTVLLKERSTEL
Briefly: COX-2 inhibitory screening assay (Cayman kit). Format: biochemical. To be noted: for Increase in COX-2 inhibitory efficiency by duplicating the concentration: % inhibition at 0.200 mg/mL divided by % inhibition at 0.100 mg/mL; for inhibition at 100 µg/mL: at 0.100 mg/mL; for inhibition at 100 µg/mL / inhibition at 200 µg/mL: read-out: COX-2 mean % inhibition ± SD; for inhibition at 200 µg/mL: at 0.200 mg/mL. The protocol:
Each compound of the two series, 3a–h and 5a–h, was resuspended in 100% DMSO at a final concentration of 10 mg/mL. […] Briefly, 10 µL of the tested compound was added to a mixture of the reaction buffer solution (160 µL of 0.1 M Tris-HCl, pH 8.0, in the presence of 2 mM phenol and 5 mM EDTA), COX-2 (10 µL) and heme (10 µL). After a 10 min incubation at 37 °C, the reaction was started by adding arachidonic acid (10 µL), rapidly mixed and kept at 37 °C for 2 min. PGF2α generated via PGH2 reduction with stannous chloride (30 µL) was incubated at room temperature for 5 min. The PGF2α amount was then determined via an enzyme immunoassay. Prior to incubation with the COX-2 reaction (at room temperature 18 h), the 96-well plate was previously coated with a mouse anti-rabbit monoclonal antibody. Unbound reagents were removed by washing the plate followed by adding Ellman’s reagent to the well. The reaction product displaying a distinct yellow color was measured at 410 nm using a UV microplate reader. The % inhibition was calculated by comparing the PGF2α produced in the compound-treated samples with a control sample, using the following equation: % inhibition is equal to [([PGF2α]control − [PGF2α]sample) /[PGF2α ]control ] × 100. […] The COX-2 inhibitory efficiency was expressed as an inhibition percentage, which was determined via a comparison with the negative control experiments.

Data set [3] has as its system LoVo human colon carcinoma cells. Briefly: Viability assay (LDH release), LoVo. Format: cell-based. As to conditions: for viability at 200 µg/mL: Homo sapiens, LoVo, 48 h, read-out: Mean % of viable cells ± SD, LoVo. The method, then:
as §1, §2

The target of data set [4] is purified recombinant human LDHA protein (Homo sapiens, UniProt P00338). Briefly: Lactate dehydrogenase A (LDHA) inhibitory assay. Format: biochemical. To be noted: for Fold change of LDHA inhibition as compared to 0.1 mg/mL: % inhibition at 0.200 mg/mL divided by % inhibition at 0.100 mg/mL; for inhibition at 100 µg/mL: at 0.1 mg/mL; for inhibition at 100 µg/mL / inhibition at 200 µg/mL: read-out: LDHA mean % inhibition ± SD; for inhibition at 200 µg/mL: at 0.2 mg/mL. The method, then:
The LDHA inhibitory effectiveness was investigated by measuring the amounts of consumed NADH [73]. […] The fluorescence of NADH, which has an excitation wavelength of 340 nm and an emission wavelength of 460 nm, was detected using a spectrofluorometer. […] The LDHA inhibitory efficiency was expressed as an inhibition percentage, which was determined via a comparison with the negative control experiments.

Protocol for α-amylase: Then, 180 µL of Labtest (the amylase substrate) was added and the samples were incubated for 8 min, followed by measuring the first reaction at 620 nm to obtain (X1). Afterwards, the reaction mixture was incubated for an additional 5 min at 37 °C; then, the second reaction was measured to obtain the final reading (X2). […] The results were expressed as IC50 µg/mL (as well as µM) and were determined from the standard curves.

Regarding `COc1cc2[nH]c(=S)n(-c3ccc([N+](=O)[O-])cc3)c(=O)c2cc1OC` [Compound 3h, 6,7-Dimethoxy-3-(4-nitro-phenyl)-2-thioxo-2,3-dihydro-1H-quinazolin-4-one], on α-amylase, the “Mean IC50 α-Amylase (AA)” value turned out to be 122.000 ± 4.583 µg/mL and the IC50 is 339 µM. Moreover, in data set [1], the “Mean IC50 for scavenging initial DPPH radicals” value came to 325 ± 7 µg/mL and the IC50 was 904 µM. In addition, the viability at 200 µg/mL in data set [2] (HCT-116, 48 h) turned out to be 70.3 ± 3.79%. Besides, on COX-2, the “Increase in COX-2 inhibitory efficiency by duplicating the concentration” value (“Increase in COX-2 inhibitory efficiency” for short) was found to be 1.900 fold, the inhibition at 100 µg/mL was 14.6 ± 0.636% and the inhibition at 200 µg/mL worked out at 27.6 ± 2.19%. Further, the viability at 200 µg/mL in data set [3] was 64 ± 3%. Also, in data set [4], the “Fold change of LDHA inhibition as compared to 0.1 mg/mL” value (from here on “Fold change of LDHA inhibition”) was determined as 1.47 fold, the inhibition at 100 µg/mL came out at 29.9 ± 1.77% and the inhibition at 200 µg/mL stood at 43.9 ± 1.56%.

For the compound `O=c1c2cc(Br)ccc2[nH]c(=S)n1-c1cccc(C(F)(F)F)c1` [Compound 3b, 6-Bromo-2-thioxo-3-(3-trifluoromethyl-phenyl)-2,3-dihydro-1H-quinazolin-4-one], the IC50 at α-amylase was 427 µM. The viability at 200 µg/mL in data set [2] (HCT-116, 48 h) stood at 70.7 ± 2.52%. At COX-2, the “Increase in COX-2 inhibitory efficiency” value is 1.72 fold, the inhibition at 100 µg/mL was 6.25 ± 1.77% and the inhibition at 200 µg/mL came out at 10.8 ± 2.48%. Further, the viability at 200 µg/mL in data set [3] worked out at 62 ± 3.61%. Moreover, in data set [4], the “Fold change of LDHA inhibition” value worked out at 1.45 fold, the inhibition at 100 µg/mL is 29.1 ± 2.19% and the inhibition at 200 µg/mL is 42.4 ± 1.91%.

In the case of `O=c1c2cc(Cl)ccc2nc(SCc2ccccc2F)n1-c1cccc(C(F)(F)F)c1` [Compound 5a, 2-(2-Fluoro-benzylsulfanyl)-6-chloro-3-(3-trifluoromethyl-phenyl)-3H-quinazolin-4-one], at α-amylase, the “Mean IC50 α-Amylase (AA)” value was 86.667 ± 4.509 µg/mL and the IC50 is 186 µM. Besides, in data set [1], the “Mean IC50 for scavenging initial DPPH radicals” value was found to be 80 ± 2 µg/mL and the IC50 is 172 µM. Besides, the viability at 200 µg/mL in data set [2] (HCT-116, 200 µg/mL, 48 h) worked out at 89.7 ± 3.06%. At COX-2, the “Increase in COX-2 inhibitory efficiency” value was 1.85 fold, the inhibition at 100 µg/mL stood at 34.2 ± 1.7% and the inhibition at 200 µg/mL came out at 63.1 ± 5.87%. Besides, the viability at 200 µg/mL in data set [3] (200 µg/mL) is 90.3 ± 1.53%. In data set [4], the “Fold change of LDHA inhibition” value stood at 1.62 fold, the inhibition at 100 µg/mL stood at 24 ± 1.7% and the inhibition at 200 µg/mL was 38.9 ± 1.13%.

`COc1cc2nc(SCc3ccc(Cl)cc3)n(-c3ccc([N+](=O)[O-])cc3)c(=O)c2cc1OC` [Compound 5h, 2-(4-Chloro-benzylsulfanyl)-6,7-dimethoxy-3-(4-nitro-phenyl)-3H-quinazolin-4-one]: on α-amylase, the “Mean IC50 α-Amylase (AA)” value is given as 117.667 ± 3.055 µg/mL and the IC50 is 243 µM. For the same compound, in data set [1], the “Mean IC50 for scavenging initial DPPH radicals” value was determined as 364 ± 20 µg/mL and the IC50 was 752 µM. Moreover, in data set [2] (HCT-116, 200 µg/mL, 48 h), the viability at 200 µg/mL came out at 91 ± 2.65%. Also, on COX-2, the “Increase in COX-2 inhibitory efficiency” value is given as 2.58 fold, the inhibition at 100 µg/mL is 11.2 ± 0.99% and the inhibition at 200 µg/mL turned out to be 28.9 ± 0.283%. In data set [3] (200 µg/mL), the viability at 200 µg/mL is 81.7 ± 3.06%. Also, in data set [4], the “Fold change of LDHA inhibition” value came to 1.42 fold, the inhibition at 100 µg/mL worked out at 15.3 ± 1.2% and the inhibition at 200 µg/mL was 21.8 ± 1.34%.

For `COc1ccc(Br)c(CSc2nc3ccc(Br)cc3c(=O)n2-c2ccc(C(F)(F)F)cc2)c1` [Compound 5e, 2-(2-Bromo-5-methoxybenzylsulfanyl)-6-bromo-3-(4-trifluoromethyl-phenyl)-3H-quinazolin-4-one], on α-amylase, the “Mean IC50 α-Amylase (AA)” value came out at 150.333 ± 3.512 µg/mL and the IC50 was 250 µM. In data set [1], the “Mean IC50 for scavenging initial DPPH radicals” value came out at 225 ± 21 µg/mL and the IC50 was 375 µM. Further, the viability at 200 µg/mL in data set [2] (HCT-116, 200 µg/mL, 48 h) is 79.7 ± 2.52%. Moreover, on COX-2, the “Increase in COX-2 inhibitory efficiency” value stood at 1.67 fold, the inhibition at 100 µg/mL stood at 31 ± 2.83% and the inhibition at 200 µg/mL was determined as 51.6 ± 4.88%. The viability at 200 µg/mL in data set [3] (200 µg/mL) was 64.3 ± 2.08%. For the same compound, in data set [4], the “Fold change of LDHA inhibition” value is 1.29 fold, the inhibition at 100 µg/mL amounted to 15.2 ± 1.77% and the inhibition at 200 µg/mL was 19.6 ± 2.33%.

Take `Cc1cc(C(C)(C)C)c(O)c(C(C)(C)C)c1` [BHT, butylated hydroxy toluene, reference compound]: in data set [1], the “Mean IC50 for scavenging initial DPPH radicals” value came to 54 ± 6 µg/mL and the half-maximal inhibitory concentration (IC50) is 245 µM.

Triton X-100 [reference compound]: in data set [2] (positive control, 0.1%), the “Mean % of viable cells, HCT-116” value is listed as 0.000%. For the same compound, the “Mean % of viable cells, LoVo” value in data set [3] (positive control, 0.1%) turned out to be 0.000%.
